# Results reported in patent publication EP0696280B1, “SUBSTITUTED PYRROLIDIN-3-YL-ALKYL-PIPERIDINES USEFUL AS TACHYKININ ANTAGONISTS” (MERRELL PHARMACEUTICALS INC., priority 1993, dated 1994).
# Counter-ions that a name gives are not always drawn. Like-named read-outs stand apart in the source and are kept apart here.
# Key:
# NK1 receptor = target: T1, NK1 receptor (Cavia porcellus, UniProt P30547); experiment: Antagonism of iodinated tachykinin binding to NK1 receptor (125I-Bolton Hunter Lys-3 labeled substance P, guinea pig lung membranes)
# T1 construct: Tissues or cells were homogenized with a Polytron in 15 volumes of 50 mM Tris-HCl buffer; tissue Keystone Biologicals, Cleveland, OH; host or cells: guinea pig lung membranes
# Method: (§1) The NK1 receptor affinity of proposed tachykinin antagonists was devaluated in guinea pig lungs (Keystone Biologicals, Cleveland, OH), affinity for the NK2 receptor evaluated in HSKR-1 cells (which are mouse 3T3 fibroblasts expressing the human jejunal NK2 receptor) and NK-3 receptor affinity was evaluated in freshly collected guinea pig cerebral cortex. Tissues or cells were homogenized with a Polytron in 15 volumes of 50 mM Tris-HCl buffer (pH 7.4, 4°C) and centrifuged. The pellet was resuspended in Tris-HCl buffer and was centrifuged; the pellet was washed twice by resuspension. The final pellet was resuspended at a concentration of 40 mg/ml for tissues (guinea pig lung and cerebral cortex) and 20 mg/ml for cells in incubation buffer and remained at room temperature for at least 15 min prior to use. Receptor binding was initiated by addition of 250 µl membrane preparation in duplicate to 0.1 nM of the following radioligands: ^125I-Bolton Hunter Lys-3 labeled substance P; ^125iodohistidyl-1-neurokinin A; and ^125I-Bolton Hunter labeled Lys-4 eledoisin in a final volume of 500 µl of buffer containing 50 mM Tris-HCl (pH 7.4 at room temperature), 0.1% bovine serum albumin, 2 mM MnCl2, 40 µg/ml bacitracin, 4 µg/ml leupeptin and chymostatin, 1 µM thiorphan and various doses of the putative tachykinin antagonists. Incubations were performed at room temperature for 90 min (NK1 receptor assays) or 2 hr (NK2 and NK3 receptor assays); binding was terminated by addition of 50 mM Tris-HCl buffer (pH 7.4, 4°C) and filtration under vacuum through GF/B filters presoaked with 0.1% polyethyleneimine (NK1 receptor assays) or 0.5% bovine serum albumin (NK2 and NK3 receptor assays). Filter bound radioactivity was quantitated in a gamma counter. Nonspecific binding was defined as binding in the presence of 1 µM substance P, neurokinin A, or eledoisin. Specific binding was calculated by subtracting nonspecific binding from total binding. Competition of iodinated SP, NKA, or eledoisin binding by test compounds or standards was expressed as a percentage of this maximum competition. IC50 values (concentration required to inhibit 50% of receptor binding) were generated for each of the test compounds by nonlinear regression using an iterative curve fitting program (GraphPAD Inplot, San Diego, CA).
# [1] = target: T2, human jejunal NK2 receptor (Homo sapiens, UniProt P21452); experiment: Antagonism of iodinated tachykinin binding to NK2 receptor (125iodohistidyl-1-neurokinin A, HSKR-1 cell membranes)
# T2 construct: expressed in transfected cells; host or cells: HSKR-1 cells (mouse 3T3 fibroblasts)
# T2 sequence (P21452 1-398): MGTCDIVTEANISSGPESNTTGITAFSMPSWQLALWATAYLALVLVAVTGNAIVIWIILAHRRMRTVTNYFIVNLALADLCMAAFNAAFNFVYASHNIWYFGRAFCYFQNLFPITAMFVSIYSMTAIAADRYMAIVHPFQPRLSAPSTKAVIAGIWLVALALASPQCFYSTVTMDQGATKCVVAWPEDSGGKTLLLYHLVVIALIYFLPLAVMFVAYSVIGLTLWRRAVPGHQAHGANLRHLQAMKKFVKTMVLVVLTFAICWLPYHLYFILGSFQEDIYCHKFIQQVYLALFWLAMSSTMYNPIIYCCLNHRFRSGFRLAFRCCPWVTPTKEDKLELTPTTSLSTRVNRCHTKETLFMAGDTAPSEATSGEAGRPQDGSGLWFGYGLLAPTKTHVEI
# Method: as §1
# [2] = system: capsaicin-induced respiratory effects; experiment: Antagonism of capsaicin aerosol induced respiratory effects in conscious guinea pigs (whole body plethysmography); format: in vivo, guinea pig; conditions: for DYSPNEA ONSET / MAXIMUM PRESSURE INCREASE (mmH2O) / SRE NUMBER*: mean and SEM; for SRE NUMBER*: number of coughs/gasps during 19 min exposure
# Method: (§2) In vivo experiments were performed using male Duncan Hartley guinea pigs (250-350g). Changes in conscious breathing patterns were monitored in four animals simultaneously using modified whole body plethysmography consisting of four small plexiglass boxes each connected to a reference box via Validyne DP 45-16 differential pressure transducers. The 4 boxes were equipped with an air supply line (also used for aerosol delivery) and an exhaust air line. Supply and exhaust lines were of the same length and narrow bore and arose from a common supply chamber and vented to a common exhaust chamber. This system was used to ensure that fluctuations in supply air and atmospheric pressure would remain in phase and be eliminated from the net signal by the differential pressure transducers. The analog pressure signals were digitalized via a Data Translation DT2821 A to D board. Data were collected at a rate of 100 samples/second/animal. Each cycle of pressure change was analyzed using the following parameters: rising and falling slope determined between minimum and maximum pressures, the ratio of rising over falling slope, and the magnitude of the change between initial trough pressure and peak cycle pressure. Using these values (and observing the animals) the pressure cycles were characterized into normal breaths, forced exhalations (apparent by abdominal heaving), significant respiratory events (SREs; usually coughs, less often sneezes or gasps which were characterized by transient, extremely large pressure increases which were distinguishable from noise) and movement/noise with a PCAT 286 running a System V UNIX operating system. Dyspnea was defined as a significant, sustained increase in plethysmograph pressure which was associated with an observable shift to labored breathing in the animal.
# (§3) During the course of a typical experiment in which airway responsiveness to various bronchoconstricting agents was examined, aerosols were delivered for 19 min (0.33 ml/min) using a DeVilbiss Ultraneb 99 ultrasonic nebulizer and animals monitored during this time. Prior to nebulization, 1 min of resting breathing was collected to establish a baseline pressure. […] The vehicle for nebulization of all bronchoconstrictive agents was phosphate buffered saline (pH 7.4) which elicited no respiratory effects itself. Putative tachykinin antagonists were administered either (i.v.) 20 min prior to onset of aerosol exposure or orally 1 hour prior to onset (to guinea pigs after an overnight fast).
# Capsaicin aerosol is known to promote release of the tachykinins SP and NKA from sensory nerves in the airways of guinea pigs which may then act upon NK1 and NK2 receptors, respectively to elicit respiratory effects. […]
# (§4) Values are mean and SEM of data derived from number of animals indicated in parenthesis. Putative tachykinin antagonists were administered intravenously 20 min prior to initiation of capsaicin aerosol (0.001%). *SRE number indicates the number of coughs/gasps which occurred during the 19 min capsaicin exposure period.
# as §4, with “by oral gavage 1 hr” for “intravenously 20 min”
# [3] = system: NKA-induced respiratory effects; experiment: Antagonism of NKA aerosol induced respiratory effects in conscious guinea pigs (whole body plethysmography); format: in vivo, guinea pig; conditions: 20 min prior to NKA aerosol (0.05%); for DYSPNEA ONSET: mean and SEM
# Method: as §2, §3
# Table 6 illustrates the effects of the compounds of Example 3; Example 20A; and Example 5A on respiratory effects induced by NKA aerosol. […] These effects were dose dependent i.e. the higher the dose of compound, the greater attenuation of NKA-mediated effects. […]
# Compounds were administered 20 min prior to initiation of NKA aerosol (0.05%). Values for each treatment represent the mean and SEM of data from 5-37 animals per dose.
# NK-3 receptor = target: T3, NK-3 receptor (Cavia porcellus, UniProt P30098); experiment: Antagonism of iodinated tachykinin binding to NK-3 receptor (125I-Bolton Hunter labeled Lys-4 eledoisin, guinea pig cerebral cortex membranes)
# T3 construct: freshly collected guinea pig cerebral cortex; from tissue; host or cells: guinea pig cerebral cortex membranes
# T3 sequence (P30098 1-440): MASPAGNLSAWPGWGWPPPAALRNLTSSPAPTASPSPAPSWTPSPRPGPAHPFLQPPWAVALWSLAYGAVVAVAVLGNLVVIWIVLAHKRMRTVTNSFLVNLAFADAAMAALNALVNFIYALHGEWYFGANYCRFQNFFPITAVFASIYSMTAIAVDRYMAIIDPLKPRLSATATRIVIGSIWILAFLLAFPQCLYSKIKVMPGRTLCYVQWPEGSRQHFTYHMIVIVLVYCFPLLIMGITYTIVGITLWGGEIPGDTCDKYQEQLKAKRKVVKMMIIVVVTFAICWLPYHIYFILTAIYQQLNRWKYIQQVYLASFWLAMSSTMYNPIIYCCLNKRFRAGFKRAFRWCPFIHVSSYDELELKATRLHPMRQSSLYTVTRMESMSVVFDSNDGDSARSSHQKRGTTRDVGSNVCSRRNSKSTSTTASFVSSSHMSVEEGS
# Method: as §1
# [4] = guinea pig lungs, mean of several experiments, read-out: NK-1 IC50
# [5] = HSKR-1 cells (mouse 3T3 fibroblasts expressing human jejunal NK2 receptor), mean of several experiments, read-out: NK-2 IC50
# [6] = 1 mg/kg intravenously 20 min prior to capsaicin aerosol (0.001%)
# [7] = 2.5 mg/kg intravenously 20 min prior to capsaicin aerosol (0.001%)
# [8] = 5 mg/kg intravenously 20 min prior to capsaicin aerosol (0.001%)
# [9] = 10 mg/kg intravenously 20 min prior to capsaicin aerosol (0.001%)
# T1 sequence (P30547 whole entry): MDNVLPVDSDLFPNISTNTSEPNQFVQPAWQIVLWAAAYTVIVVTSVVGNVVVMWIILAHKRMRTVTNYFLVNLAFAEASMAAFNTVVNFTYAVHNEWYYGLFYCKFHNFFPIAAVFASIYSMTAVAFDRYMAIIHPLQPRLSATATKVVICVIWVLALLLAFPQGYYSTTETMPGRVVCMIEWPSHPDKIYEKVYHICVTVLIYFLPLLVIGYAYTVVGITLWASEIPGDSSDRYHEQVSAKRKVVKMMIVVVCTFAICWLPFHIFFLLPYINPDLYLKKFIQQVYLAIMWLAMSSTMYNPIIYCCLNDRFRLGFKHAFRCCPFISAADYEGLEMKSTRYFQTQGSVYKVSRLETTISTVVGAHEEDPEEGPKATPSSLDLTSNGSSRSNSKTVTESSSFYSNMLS
smiles,measurement,setting,value
"NC(=O)C1(c2ccccc2)CCN(CCC2(c3ccc4ccccc4c3)CCN(C(=O)c3ccccc3)C2)CC1 (racemic) [Example 8, 1-[2-(1-benzoyl-3-napthalen-2-yl-pyrrolidin-3-yl)-ethyl]-4-phenyl-piperidine-4-carboxylic acid amide]",IC50,NK1 receptor; [4],1480 nM
same,IC50,[1]; [5],94 nM
NC(=O)C1(c2ccccc2)CCN(CCC2(c3ccc4ccccc4c3)CC(=O)N(Cc3ccccc3)C2)CC1 (racemic) [Example 12],IC50,NK1 receptor; [4],810 nM
same,IC50,[1]; [5],179 nM
"COc1cc(C(=O)N2CCC(CCN3CCC(C(N)=O)(c4ccccc4)CC3)(c3ccc(Cl)c(Cl)c3)C2)cc(OC)c1OC.Cl (single isomer, unassigned; (+)) [Example 20A, (+)-1-[2-[3-(3,4-dichloro-phenyl)-1-(3,4,5-trimethoxy-benzoyl)-pyrrolidin-3-yl] -ethyl]-4-phenyl-piperidine-4-carboxylic acid amide hydrochloride]",DYSPNEA INCIDENCE,[2]; [6],77.8% (7/9)
same,DYSPNEA ONSET,[2]; [6],331 ± 22 s
same,MAXIMUM PRESSURE INCREASE (mmH2O),[2]; [6],1.0 ± 0.1 mmH2O
same,SRE NUMBER*,[2]; [6],9.9 ± 2.7
same,DYSPNEA INCIDENCE,[2]; [7],100% (10/10)
same,DYSPNEA ONSET,[2]; [7],426 ± 57 s
same,MAXIMUM PRESSURE INCREASE (mmH2O),[2]; [7],0.6 ± 0.1 mmH2O
same,SRE NUMBER*,[2]; [7],8.3 ± 1.6
same,DYSPNEA INCIDENCE,[2]; [8],44.4% (4/9)
same,DYSPNEA ONSET,[2]; [8],597 ± 186 s
same,MAXIMUM PRESSURE INCREASE (mmH2O),[2]; [8],0.8 ± 0.06 mmH2O
same,SRE NUMBER*,[2]; [8],4.4 ± 1.9
same,DYSPNEA INCIDENCE,[2]; [9],55.6% (5/9)
same,DYSPNEA ONSET,[2]; [9],592 ± 71 s
same,MAXIMUM PRESSURE INCREASE (mmH2O),[2]; [9],0.8 ± 0.1 mmH2O
same,SRE NUMBER*,[2]; [9],3.3 ± 1.1
same,DYSPNEA INCIDENCE,[3]; 1 mg/kg,100% (10/10)
same,DYSPNEA ONSET,[3]; 1 mg/kg,451 ± 30 s
same,DYSPNEA INCIDENCE,[3]; 5 mg/kg,90% (9/10)
same,DYSPNEA ONSET,[3]; 5 mg/kg,706 ± 82 s
same,DYSPNEA INCIDENCE,[3]; 10 mg/kg,70% (7/10)
same,DYSPNEA ONSET,[3]; 10 mg/kg,829 ± 105 s
"NC(=O)C1(c2ccccc2)CCN(CCC2(c3ccc(Cl)c(Cl)c3)CCN(C(=O)c3ccccc3)C2)CC1 (centres unmarked) [Example 1, 1-[2-[3-(3,4-dichloro-phenyl)-1-benzoyl-pyrrolidin-3-yl]-ethyl]-4-phenyl-piperidine-4-carboxylic acid amide]",IC50,NK-3 receptor,162 nM
same,IC50,[1]; [5],7 nM
COC(=O)CC[C@H](NC(=O)C1(c2ccccc2)CCN(CCC2(c3ccc(Cl)c(Cl)c3)CCN(C(=O)c3ccccc3)C2)CC1)C(=O)OC (some centres unmarked) [Example 6],IC50,NK1 receptor; [4],182 nM
same,IC50,[1],15 nM
"COc1ccccc1C(=O)N1CCC(CCN2CCC(C(N)=O)(c3ccccc3)CC2)(c2ccc(Cl)c(Cl)c2)C1 (centres unmarked) [Example 13, 1-[2-[3-(3,4-dichloro-phenyl)-1-(2-methoxy-benzoyl)-pyrrolidin-3-yl]-ethyl]-4-phenyl-piperidine-4-carboxylic acid amide]",IC50,[1]; [5],14 nM
"COc1cc(C(=O)N2CCC(CCN3CCC(C(N)=O)(c4ccccc4)CC3)(c3ccccc3)C2)cc(OC)c1OC (centres unmarked) [Example 22A, 1-[2-[3-phenyl-1-(3,4,5-trimethoxy-benzoyl)-pyrrolidin-3-yl]-ethyl]-4-phenyl-piperidine-4-carboxylic acid amide hydrochloride]",IC50,NK1 receptor,17.4 nM
same,IC50,[1],1190 nM
"COc1ccc(C2(CCN3CCC(C(N)=O)(c4ccccc4)CC3)CCN(C(=O)c3cc(OC)c(OC)c(OC)c3)C2)cc1OC (centres unmarked) [Example 23, 1-[2-[3-(3,4-dimethoxy-phenyl)-1-(3,4,5-trimethoxy-benzoyl)-pyrrolidin-3-yl]-ethyl]-4-phenyl-piperidine-4-carboxylic acid amide]",IC50,NK1 receptor,20 nM
same,IC50,[1]; [5],2680 nM
